Experimental data as given in US7977317B2, “Compositions and methods for modulating blood-brain barrier transport” (Raptor Pharmaceutical Inc., priority 2001, dated 2011).
pKd: −log10 of the molar value.

Columns and labels:
[1] = test system: bovine brain capillary endothelial cell monolayers; assay: Competition of [125I]-p97 binding on bovine brain capillary endothelial cell monolayers; conditions: [125I]-p97 25 nM, 2 h at 4° C., competitor 7.5 micromolar (FIG. 3)
Protocol: FIG. 3. Binding of p97 on bovine brain capillary endothelial cell monolayers. Binding p97 was performed with BBCECs that were pre-incubated 2 hrs in Ringer-Hepes to avoid any interference from the astrocytes. For the binding experiments, cells were incubated for 2 h at 4° C. in Ringer/Hepes in the presence of [^125I]-p97 (25 nM) and 7.5 micromolar concentrations of cold-p97, transferrin or lactoferrin, respectively. At the end of the incubation, the filters were gently washed at 4° C. three times with 4 ml of cold-PBS. Then the associated radioactivity of endothelial cells was determined by removing the membrane of the culture insert and counting it in a gamma counter.
B. Binding studies of p97. Binding of p97 was performed with BBCECs and Rat Brain Endothelial Cells that were pre-incubated 2 hrs in Ringer/Hepes to avoid any interference from the astrocytes.
For the binding experiments, cells were incubated for 2 h at 4° C. in Ringer/Hepes in the presence of [^125I]-p97 (25 nM) and increasing concentrations of cold-p97 or high (7.5 micromolar) concentrations of transferrin or lactoferrin. At the end of the incubation, the filters were gently washed at 4° C. three times with 4 ml of cold-PBS. Then the associated radioactivity of endothelial cells was determined by removing the membrane of the culture insert and counting it in a gamma counter.

[2] = Brain uptake one hour after i.v. injection; assay type: in vivo; conditions: mice, one hour after i.v. injection of [125I]-protein (FIG. 11a)
Protocol: FIG. 11 examines the accumulation and transcytosis of p97. FIG. 11a, of [^125I]-p97, [^125I]-BSA and [^125I]-holo-transferrin one hour after i.v. injection. The radioactivity in brain was compared between the three compounds. (n=3); FIG. 11b, Accumulation of p97 and transferrin into the mouse brain parenchyma. In situ brain perfusion was performed with human [^125I]-p97 or [^125I]-holo-transferrin at a final concentration of 10 nM via a catheter inserted in the right common carotid artery. The volume of distribution (VD) of [^125I]-proteins were obtained in the whole brain homogenate (white bars), in brain capillaries (solid bars) and in brain parenchyma (hatched bars) after isolation of the right hemisphere and capillary depletion. Results were obtained for p97 (n=10) and for holo-transferrin (n=6); FIG. 11c, Transcytosis of p97 across BBCEC monolayers. Transcytosis experiments were performed 37° C. (open circles) and 4° C. (closed circles) with BBCEC monolayers. […] Apical-to-basal and basal-to-apical transport of [^125I]-p97 (25 nM) was measured for 2 hrs at 37° C. At the end of the experiment, [^125I]-p97 was assessed in the lower or upper chambers of each well by TCA precipitation (n=4).
A. Brain uptake and in situ brain perfusion. […] The serum and brain samples were collected and the levels of radioactivity were measured. […]

[3] = molecular target: BBCEC monolayers; conditions: +saponin, published value; cited from earlier work

Question: What does the source list for “transferrin: transferrin (Tf), iron-binding serum protein used as comparator and competitor”?
Answer: Inhibition of [125I]-p97 binding to BBCECs [1]: did not block or reduce; Brain/serum ratio [2]: 0.008; pKd [3]: 7.96
